pIC50: −log10 of the molar value. Read-outs that look alike come from different tables or passages of the source. Marks after values point to notes of the source that are not given here.
How the values were obtained:
[1] = molecular target: T1, human MMP-9 (gelatinase B) (Homo sapiens, UniProt P14780); assay: Inhibition activity against human MMP-9 (gelatinase B), fluorescent peptide substrate; type: biochemical; conditions: compounds of the formula (I)
T1 construct: endogenous in cells; host or cells: HT1080 human fibrosarcoma cells (ATCC CCL-121), PMA-stimulated; enzyme purified from the culture supernatant
Summary of the method: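 MMP-9 purified from PMA-stimulated (10 ng/ml) HT1080 supernatant, or commercial enzyme (0.0125-0.025 unit/ml or 0.2 μg/ml final), incubated with compound and 10 μM final Mca-Pro-Leu-Gly-Leu-Dpa-Ala-Arg-NH2 fluorescent substrate at 37 °C for 3 h in the dark. Precursor enzyme activated with APMA.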

[2] = tested on: Meth A/AD cells (mouse fibrosarcoma); type: in vivo; parameters: Tumor volume (Day 22) Average ± standard deviation / Tumor growth inhibition ratio (%) / Tumor volume (Day 24) Average ± standard deviation: dose or concentration left out as unconfirmed; conditions: for inhibition ratio of tumor growth of Meth A/AD: intraperitoneal administration, total of 10 times, male BALB/c mouse, tumor volume vs vehicle control
Protocol: Meth A mouse fibrosarcoma cells intraperitoneally subcultured in mouse (supplied from Sasaki Institute) were cultured at 39° C. for 10 days in 5% CO2 (using 10% fetal bovine serum-containing RPMI culture medium (manufactured by Flow Laboratories)) and then inoculated subcutaneously to BALB/c mouse. The tumor grown for 30 days, was taken out and passed through a metal mesh to obtain single cells, which were again returned and continuously cultured in vitro (37° C.). […] On the other hand, the Meth A/AD strain always produces and secretes MMP-2 in the supernatant in in vitro culture, but when TNF-α (50 ng/ml) was added in the culture solution, it produced MMP-9 remarkably.
With reference to the method by Keneda et al (Cancer Research, Vol. 58, 290-295, 1998), the inhibitory effect on tumor growth were evaluated. Namely, 1×10^6 Meth A/AD cells cultured in vitro (suspended in 0.05 ml of a Hanks equilibrium salt solution) were intradermaly transplanted to the dosal skin of a male BALB/c AnNCrj mouse of 5 weeks old (purchased from Charles River Japan, Inc.) (Day 0). […] Compound No. 107 was suspended in a 1% Tween 80 physiological sodium chloride aqueous solution, and Compound No. 164 was dissolved in 100 mM Tris-HCl (pH 8.5)/150 mM NaCl, for administration. To the vehicle control group, the respective solvents containing no test materials were administered in the same manner. The measurement of the body weight and the observation of the general findings were carried out everyday up to Day 22 or 24, and the tumor diameters (the long diameter and the short diameter) were measured by a slide gauge every one day, and the difference in the tumor volume between the vehicle control group and the drug-treated group was evaluated. The tumor volume was calculated in accordance with the calculation formula of [(long diameter)×(short diameter)^2×½].

[3] = 1st measurement, read-out: MMP-9 inhibition activities IC50, 1st
[4] = 2nd measurement, read-out: MMP-9 inhibition activities IC50, 2nd
[5] = average of 1st and 2nd (or single measurement), read-out: MMP-9 inhibition activities IC50, Average

T1 sequence (P14780 107-707 limits assumed): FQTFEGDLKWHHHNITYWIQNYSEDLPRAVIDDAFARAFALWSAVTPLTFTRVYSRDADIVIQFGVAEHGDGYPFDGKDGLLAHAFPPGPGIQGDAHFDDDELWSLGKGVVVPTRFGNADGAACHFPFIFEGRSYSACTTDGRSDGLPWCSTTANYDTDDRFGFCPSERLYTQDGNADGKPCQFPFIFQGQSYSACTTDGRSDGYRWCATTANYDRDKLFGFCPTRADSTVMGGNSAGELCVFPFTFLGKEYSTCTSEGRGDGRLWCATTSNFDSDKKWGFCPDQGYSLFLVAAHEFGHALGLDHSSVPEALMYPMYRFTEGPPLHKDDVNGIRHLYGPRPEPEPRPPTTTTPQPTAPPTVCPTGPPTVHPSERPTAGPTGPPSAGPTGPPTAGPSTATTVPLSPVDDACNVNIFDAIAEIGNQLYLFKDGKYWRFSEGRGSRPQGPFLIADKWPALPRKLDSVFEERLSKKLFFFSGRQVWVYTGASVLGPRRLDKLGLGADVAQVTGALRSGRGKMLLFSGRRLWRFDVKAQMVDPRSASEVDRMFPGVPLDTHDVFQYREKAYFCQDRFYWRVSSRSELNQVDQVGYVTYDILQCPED

| Structure (SMILES) | pIC50 [1, 3] | pIC50 [1, 4] | pIC50 [1, 5] | inhibition ratio of tumor growth of Meth A/AD ([2]; 100 mg/kg) | Tumor growth inhibition ratio (%) ([2]; intraperitoneal, Day 22) | Tumor volume (Day 22) Average ± standard deviation ([2]; intraperitoneal, Day 22, vehicle control 1058 ± 556) | inhibition ratio of tumor growth of Meth A/AD ([2]; 30 mg/kg) | Tumor growth inhibition ratio (%) ([2]; intraperitoneal, Day 24) | Tumor volume (Day 24) Average ± standard deviation ([2]; intraperitoneal, Day 24, vehicle control 2045 ± 987) |
| --- | --- | --- | --- | --- | --- | --- | --- | --- | --- |
| CCOCCOc1cc(C(F)(F)F)cc(NNC(=C[N+](=O)[O-])NC)n1 [Compound No. 107] | 5.10 | 5.13 | 5.11 | 63.5% | 63.5* % | 386 ± 275* mm^3 |  |  |  |
| CS(=O)(=O)NC(=C[N+](=O)[O-])NNc1cc(C(F)(F)F)cc(Cl)n1 [Compound No. 157, N-(1-(6-chloro-4-trifluoromethyl-2-pyridyl)hydrazino-2-nitroethenyl)methanesulfonamide] | 5.13 | 5.26 | 5.19 |  |  |  |  |  |  |
| CCOCCOc1cc(C(F)(F)F)cc(NNC(=C[N+](=O)[O-])NS(C)(=O)=O)n1 [Compound No. 164, N-(1-(6-(2-ethoxyethoxy)-4-trifluoromethyl-2-pyridyl)hydrazino-2-nitroethenyl)methanesulfonamide] | 5.27 | 5.23 | 5.24 |  |  |  | 49.8% | 49.8* % | 1027 ± 907* mm^3 |
